# Assay results: patent US11542234B2, “2-alkoxy-6-[18F]fluoronicotinoyl substituted lys-c(O)-glu derivatives as efficient probes for imaging of PSMA expressing tissues” (Universität zu Köln, priority 2018, dated 2023)
# Read-outs that look alike come from different tables or passages of the source.
# Tests used:
# PSMA [1] = target: T1, PSMA (Rattus norvegicus, UniProt P70627); assay: PET study of PSMA-specific tracers in healthy rats; format: in vivo; conditions: for Bone % ID / Liver % ID / SCG % ID / signal-to-noise ratio (SCG), printed in text with / SCG signal-to-noise ratio: PET 60-120 min after injection; for SCG signal-to-noise ratio: background dorsal from cervical vertebral column
# T1 construct: ganglia as natural PSMA-expressing tissues remain constant over a long time; from tissue; host or cells: healthy Long Evans rats in vivo
# T1 sequence (P70627 whole entry): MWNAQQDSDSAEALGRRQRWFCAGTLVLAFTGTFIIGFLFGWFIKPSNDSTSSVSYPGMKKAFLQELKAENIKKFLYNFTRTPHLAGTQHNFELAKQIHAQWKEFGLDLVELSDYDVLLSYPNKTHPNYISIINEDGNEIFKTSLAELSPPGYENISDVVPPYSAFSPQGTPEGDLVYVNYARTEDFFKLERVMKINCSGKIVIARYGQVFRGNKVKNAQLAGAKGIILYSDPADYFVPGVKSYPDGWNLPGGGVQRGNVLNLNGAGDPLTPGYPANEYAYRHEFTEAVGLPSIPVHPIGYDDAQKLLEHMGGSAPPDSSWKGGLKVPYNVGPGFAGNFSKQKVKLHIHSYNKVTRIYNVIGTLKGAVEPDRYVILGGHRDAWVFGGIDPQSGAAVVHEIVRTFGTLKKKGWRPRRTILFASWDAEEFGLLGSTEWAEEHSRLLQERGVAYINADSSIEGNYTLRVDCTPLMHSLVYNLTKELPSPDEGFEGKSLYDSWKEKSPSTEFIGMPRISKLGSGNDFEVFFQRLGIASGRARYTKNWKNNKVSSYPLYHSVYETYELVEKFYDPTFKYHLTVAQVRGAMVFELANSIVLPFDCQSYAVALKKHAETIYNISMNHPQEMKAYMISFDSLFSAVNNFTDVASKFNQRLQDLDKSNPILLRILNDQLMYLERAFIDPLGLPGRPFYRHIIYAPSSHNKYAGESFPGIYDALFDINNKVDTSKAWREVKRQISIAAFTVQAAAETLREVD
# From the text: Ganglia represent an ideal tissue for the evaluation of PSMA binding imaging probes. Having a size of 1-2 mm these structures are sufficiently small to imitate metastases in a very early stage. Ganglionic PSMA is expressed by satellite glial cells, which envelop the neuronal cell bodies of the trigeminal ganglion,^[25] spinal dorsal root ganglia and ganglia of the autonomic nervous system.^[26] […] Rat PSMA comprises 752 amino acids (vs. 750 in humans), and has about 91% homology to the human PSMA. Importantly, all amino acid residues of the active site are essentially the same as those in the human homologue with the only exception of Gly^548 in the human and Ser^548 in the rat protein, respectively^[28]
# Conditions: Uptake of different PSMA-specific tracers in healthy rats measured by PET. Conditions: PET scanner (Focus 220, Siemens); 57-71 MBq tracer was injected. PET scans started 60 min after injection and continued for 60 min. % ID was determined by dividing each image by the injected dose and multiplying it by body weight. […] Background activity for calculation of signal-to-noise ratio was measured dorsal from the cervical vertebral column with a 390 mm^3 VOI.
# Animals: Experiments were carried out in accordance with the EU directive 2010/63/EU for animal experiments and the German Animal Welfare Act (TierSchG, 2006), and were approved by regional authorities (LANUV NRW). Long Evans rats (250-590 g body weight) were used for this study. Rats were housed in pairs in individually ventilated cages (NexGen EcoFlo, cages RAT1800 with 1805 cm^2 floor space and 41 cm height; Allentown Inc., Allentown, N.J., USA) under controlled ambient conditions (22±1° C. and 55±5% relative humidity) on an inversed 12 hour light/dark schedule (lights on 9:00 p.m.-9:00 a.m.). Food and water were available at all times. Three rats received two, and one rat received three different tracers. The other seven rats were measured with one tracer only. Each tracer was measured in three animals.
# PET-imaging: Prior to PET measurements with PET probes, animals were anesthetized (initial dosage: 5% isoflurane in 02/air (3:7), then reduction to 2%), and a catheter for tracer injection was inserted into the lateral tail vein. Rats were placed on an animal holder (Medres, Cologne, Germany), and fixed with a tooth bar in a respiratory mask. Dynamic PET scans in a list mode were performed using a Focus 220 micro PET scanner (CTI-Siemens, Germany) with a resolution at a center of field of view of 1.4 mm. Data acquisition started with tracer injection (66±14 MBq in 0.5 mL i.v.), continued for 120 min and was followed by a 10 min transmission scan using a ^57Co point source. For blocking studies 2-(phosphonomethyl)pentanedioic acid (2-PMPA; 23 mg/kg) was added directly to a radiotracer solution. Breathing rate was monitored and kept around 60/min by adjusting isoflurane concentration (1.5-2.5%). Body temperature was maintained at 37° C. by a feedback-controlled system. Following Fourier rebinning, data were reconstructed using an iterative OSEM3D/MAP procedure78 including attenuation and decay correction in two different ways: 1) 28 frames (2×1 min; 2×2 min, 6×4 min, 18×5 min) for compilation of regional time activity curves; 2) 4 frames (4×30 min) for visual display. Resulting voxel sizes were always 0.38×0.38×0.79 mm.
# Data analysis was performed using the software VINCI.79 Images were Gauss filtered (1 mm FWHM), and % ID was determined by dividing each image by the injected dose and multiplying the result by body weight times 100. Mean % ID values were extracted from each of the 28 frames and plotted over time.
# PSMA^+ LNCaP C4-2 cells = assay: Cellular uptake in PSMA positive LNCaP C4-2 cells; format: cell-based; conditions: for cellular uptake under inhibition with 2-PMPA: in the presence of 2-PMPA (100 μM/well)
# Procedure: (§1) The PSMA specificity of the tracer uptake in LNCaP C4-2 was confirmed by complete inhibition with 2-PMPA (≤0.1% ID/10^5 cells). The enrichment of both tracers in PSMA^− PC3 cells was negligible (≤0.1% ID/10^5 cells).
# (§2) PSMA^− PC-3 cells were cultured in RPMI-1640 medium supplemented with FBS (10%) and penicillin/streptomycin (1%). PSMA* LNCaP C4-2 cells were cultured in a mixture of DMEM: Ham's F-12K (Kaighn's) mediums (4:1) supplemented with FBS (5%), NaHCO3(3 g/L), insulin (5 μg/mL), triiodothyronine ([…]), transferrin (5 μg/mL), biotin (0.25 μg/ml) and adenine (25 μg/mL). Both cell lines were grown in 75 mL flasks containing 10 mL of the culture medium in a humidified atmosphere of 5% CO2/95% air at 37° C. for 4-5 days until they reached 80-90% confluency. Cells were seeded into 12-well plates (1×10^5 cells/well containing 1 mL medium) 24 h before the beginning of the cellular uptake experiments.
# 2-(Phosphonomethyl)pentanedioic acid (2-PMPA; 100 μM/well) was used for blocking studies. Thereafter, the cells were washed two times with medium (1 mL), trypsinized, harvested and the accumulated radioactivity was measured in a gamma counter (Wizard 1470, PerkinElmer, Massachusetts, USA). The cellular uptake of the novel PSMA-selective candidates and [^18F]DCFPyL obtained in experiments performed in parallel were compared. Each cellular uptake experiment was carried out in triplicate.
# PSMA [2] = target: T2, PSMA (Homo sapiens, UniProt Q04609); assay: PSMA-PET imaging of patients with biochemical recurrence of prostate cancer; format: in vivo; conditions: 124 patients with biochemical recurrence (BCR) of PCa
# T2 construct: from tissue; host or cells: patients with prostate cancer or biochemical recurrence, in vivo PET/CT
# T2 sequence (Q04609 whole entry): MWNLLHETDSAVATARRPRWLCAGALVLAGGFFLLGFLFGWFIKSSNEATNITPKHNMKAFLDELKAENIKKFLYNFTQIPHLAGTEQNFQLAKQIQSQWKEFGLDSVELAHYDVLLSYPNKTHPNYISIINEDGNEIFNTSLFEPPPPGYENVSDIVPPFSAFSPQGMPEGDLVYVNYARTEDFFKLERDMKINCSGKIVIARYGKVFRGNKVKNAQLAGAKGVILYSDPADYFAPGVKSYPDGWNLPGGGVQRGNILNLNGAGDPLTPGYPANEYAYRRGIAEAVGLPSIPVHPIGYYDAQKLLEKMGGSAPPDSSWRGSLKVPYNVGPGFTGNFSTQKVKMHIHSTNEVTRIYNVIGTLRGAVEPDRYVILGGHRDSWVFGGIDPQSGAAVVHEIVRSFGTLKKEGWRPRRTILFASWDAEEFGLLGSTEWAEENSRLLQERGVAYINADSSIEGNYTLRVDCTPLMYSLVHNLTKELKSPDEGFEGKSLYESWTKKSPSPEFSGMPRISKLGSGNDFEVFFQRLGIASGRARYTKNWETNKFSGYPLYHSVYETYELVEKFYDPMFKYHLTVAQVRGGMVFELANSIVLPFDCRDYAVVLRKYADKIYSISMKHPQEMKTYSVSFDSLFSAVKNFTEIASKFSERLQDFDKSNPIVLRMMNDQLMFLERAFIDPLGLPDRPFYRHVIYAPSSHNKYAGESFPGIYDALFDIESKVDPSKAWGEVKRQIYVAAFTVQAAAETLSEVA
# Procedure: In the subsequent larger study, 124 patients with biochemical recurrence (BCR) of PCa were examined.
# (§3) The study was conducted in accordance with the Institutional Review Board. All patients gave written informed consent to PET imaging and inclusion of their data in a retrospective analysis. All procedures were performed in compliance with the regulations of the responsible local authorities (District Administration of Cologne, Germany).
# (§4) All measurements with [^68Ga]Ga-PSMA-HBED-CC and [^18F]-2-MeO-PSMA were carried out as described in the literature.^[14a, 15]
# PSMA [3] = target: T2, PSMA; assay: Pilot PET/CT study in 10 patients, comparison with [68Ga]Ga-PSMA-HBED-CC; format: in vivo
# Procedure: Owing to the favorable imaging properties of 2-MeO-[^18F]PSMA in rats a small pilot study with this tracer in 10 patients was conducted. All patients were examined with both [^68Ga]Ga-PSMA-HBED-CC and 2-MeO-[^18F]PSMA PET CT. In each case, both PET/CT scans were carried out within three weeks. […] In four patients, at least one additional PSMA-positive lesion using 2-MeO-[^18F]PSMA compared to the corresponding [^68Ga]Ga-PSMA-HBED-CC image was identified (FIG. 6B). In one patient inconspicuous in the [^68Ga]Ga-PSMA-HBED-CC scan, a PSMA-positive lesion was discovered by 2-MeO-[^18F]PSMA PET/CT (FIG. 6C).
# as §3, §4
# PSMA^− PC-3 cells = assay: Cellular uptake in PSMA negative PC3 cells; format: cell-based
# Procedure: as §1, §2
# The corresponding PSMA specific PET probe was added to the cells (100-150 kBq/well) and the cells were incubated at 37° C. for 1 and 2 h. 2-(Phosphonomethyl)pentanedioic acid (2-PMPA; 100 μM/well) was used for blocking studies. Thereafter, the cells were washed two times with medium (1 mL), trypsinized, harvested and the accumulated radioactivity was measured in a gamma counter (Wizard 1470, PerkinElmer, Massachusetts, USA). […]
# PSMA [4] = target: T2, PSMA; conditions: determined earlier, for comparison; cited from earlier work
# [5] = meta-analysis of data of 251 patients, detecting recurrent PCa; cited from earlier work
# [6] = co-application of 2-PMPA (23 mg/kg)
# [7] = 2 h incubation, 2-MeO-[18F]PSMA and [18F]DCFPyL in parallel (FIG. 4A)
# [8] = 2 h incubation, 4-MeO-[18F]PSMA and [18F]DCFPyL in parallel (FIG. 4B)
# [9] = 4 h incubation, 2-MeO-[18F]PSMA and [18F]DCFPyL in parallel (FIG. 4A)
# [10] = 4 h incubation, 4-MeO-[18F]PSMA and [18F]DCFPyL in parallel (FIG. 4B)
Bone % ID (PSMA [1]),Liver % ID (PSMA [1]),SCG % ID (PSMA [1]; superior cervical ganglion),SCG signal-to-noise ratio (PSMA [1]),Compound,cellular uptake (PSMA^+ LNCaP C4-2 cells; [7]),cellular uptake (PSMA^+ LNCaP C4-2 cells; [8]),cellular uptake (PSMA^+ LNCaP C4-2 cells; [9]),cellular uptake (PSMA^+ LNCaP C4-2 cells; [10]),"signal-to-noise ratio (SCG), printed in text with (PSMA [1])",cellular uptake under inhibition with 2-PMPA (PSMA^+ LNCaP C4-2 cells),further results
12.4 ± 4.3 % ID,65.3 ± 21.7 % ID,20.2 ± 5.8 % ID,–,O=C(O)CC[C@H](NC(=O)N[C@@H](CCCCNC(=O)c1ccc([18F])nc1)C(=O)O)C(=O)O [[^18F]DCFPyL],1.55±0.05 % ID/10^5 cells,1.53±0.03 % ID/10^5 cells,3.1±0.03 % ID/10^5 cells,3.16±0.01 % ID/10^5 cells,–,–,uptake in the ganglion of the trigeminal nerve (PSMA [1]; 60-120 min after injection): 37.9±9.9 % ID; Liver % ID (PSMA [1]; [6]): remained at the same level; SCG % ID (PSMA [1]; [6]): 4.6±1.8 % ID
–,–,31.3±10.5 % ID,8.2 ± 1.7,COc1nc([18F])ccc1C(=O)NCCCC[C@H](NC(=O)N[C@@H](CCC(=O)O)C(=O)O)C(=O)O [2-MeO-[^18F]PSMA],2.03±0.03 % ID/10^5 cells,–,3.31±0.01 % ID/10^5 cells,–,8.2 ± 1.7,≤ 0.1 % ID/10^5 cells,sensitivity (PSMA [2]): 83.0%; patients inconspicuous in the [68Ga]Ga-PSMA-HBED-CC scan in whom a PSMA-positive lesion was discovered (PSMA [3]): one; patients with at least one additional PSMA-positive lesion compared to the corresponding [68Ga]Ga-PSMA-HBED-CC image (PSMA [3]; both PET/CT scans within three weeks): four
19.2±2.1 % ID,29.0±7.2 % ID,14.4±2.6 % ID,4.6±1.3,COc1cc([18F])ncc1C(=O)NCCCC[C@H](NC(=O)N[C@@H](CCC(=O)O)C(=O)O)C(=O)O [4-MeO-[^18F]PSMA],–,0.79±0.04 % ID/10^5 cells,–,0.90±0.04 % ID/10^5 cells,–,completely blocked,enrichment in PSMA^− PC3 cells (PSMA^− PC-3 cells): very low
18.5 ± 0.6 % ID,47.0 ± 10.3 % ID,41.0±3.4 % ID,4.5±0.1,O=C([O-])CN(CCN(CC(=O)[O-])Cc1cc(CCC(=O)NCCCCCC(=O)NCCCC[C@H](NC(=O)N[C@@H](CCC(=O)O)C(=O)O)C(=O)O)ccc1[O-])Cc1cc(CCC(=O)O)ccc1[O-].[68Ga+3].[OH3+] [[^68Ga]Ga-PSMA-HBED-CC],–,–,–,–,–,–,"SCG signal-to-noise ratio (PSMA [1]; listed as [^68Ga]PSMA-HBED-CC): 4.5 ± 0.1; SCG % ID (PSMA [1]; superior cervical ganglion, listed as [^68Ga]PSMA-HBED-CC): 41.0 ± 3.4 % ID; sensitivity (PSMA [4]): 74.2%"
–,–,–,–,"N[C@]1(C(=O)O)C[C@@H]([18F])C1 [[^18F]FACBC, anti-1-amino-3-[^18F]fluorocyclobutane-1-carboxylic acid]",–,–,–,–,–,–,sensitivity [5]: 87%; specificity [5]: 66%

Compound,Bone % ID (PSMA [1]),Liver % ID (PSMA [1]),SCG % ID (PSMA [1]; superior cervical ganglion),SCG signal-to-noise ratio (PSMA [1]),cellular uptake (PSMA^+ LNCaP C4-2 cells; [7]),cellular uptake (PSMA^+ LNCaP C4-2 cells; [8]),cellular uptake (PSMA^+ LNCaP C4-2 cells; [9]),cellular uptake (PSMA^+ LNCaP C4-2 cells; [10]),"signal-to-noise ratio (SCG), printed in text with (PSMA [1])",cellular uptake under inhibition with 2-PMPA (PSMA^+ LNCaP C4-2 cells),further results
O=C(O)CC[C@H](NC(=O)N[C@@H](CCCCNC(=O)[C@H](Cc1ccc2ccccc2c1)NC(=O)c1ccc(CNC(=O)[C@H](CCC(=O)O)NC(=O)[C@H](CCC(=O)O)NC(=O)c2ccc([18F])nc2)cc1)C(=O)O)C(=O)O [[^18F]PSMA-1007],33.2±9.5 % ID,50.7 ± 4.3 % ID,–,6.2 ± 1.9,–,–,–,–,6.2 ± 1.9,–,–
